Laboratory results published in ChEMBL document CHEMBL2095176, “GSK Tuberculosis Screening Data”.
Values after ≈ are worked out from the molar mass of the structure shown.

How the values were obtained:
[1] = system: Mycobacterium tuberculosis H37Rv; assay: microbe, parasite or virus in culture
Description: GSK_TB: Intracellular minimum inhibitory concentration (MIC) H37Rv assay

physchem [2] = conditions: buffer, pH 7.4
Description: GSK_TB: GSK in-house hydrophobicity assay at pH7.4 (logD)

physchem [3] = conditions: octanol/water
Description: GSK_TB: GSK in-house hydrophobicity assay (logP)

physchem [4] = conditions: phosphate buffered saline, pH 7.4

Structure (SMILES)	MIC90 [1] [µM]	logD (physchem [2])	logP (physchem [3])	solubility kinetic (physchem [4]) [µM]
N#Cc1nc(-c2ccccc2F)oc1NCCc1ccccc1	2.79 (≈ 0.856 µg/mL)	6.37	6.63	3 (≈ 0.922 µg/mL)
Cc1ccc(C(=O)Nc2nc(-c3ccccn3)cs2)s1	8.41 (≈ 2.54 µg/mL)	4.6	4.61	15 (≈ 4.52 µg/mL)
CCOC(=O)c1cc(-c2csc(Nc3c(C)cc(C)cc3C)n2)on1	4.07 (≈ 1.46 µg/mL)	7.12	7.45	1 (≈ 0.357 µg/mL)
O=C(c1cnn(C(=O)c2ccco2)c1)c1cc(F)ccc1O	9.55 (≈ 2.87 µg/mL)	–	–	1 (≈ 0.3 µg/mL)
CC(Oc1ccccc1)C(=O)Nc1nc(-c2ccccn2)cs1 (centres undefined)	9.77 (≈ 3.18 µg/mL)	5.07	5.06	174 (≈ 56.6 µg/mL)
c1ccc(-c2nc(N3CCCCCC3)nc(-n3ccnc3)n2)cc1	7.41 (≈ 2.38 µg/mL)	–	–	1 (≈ 0.32 µg/mL)
CNc1nc(SC)nc2ccccc12	0.2 (≈ 0.0411 µg/mL)	–	–	–
Cc1nnc(NCc2cccc(Cl)c2)c2ccccc12	5.9 (≈ 1.67 µg/mL)	4.32	4.52	127 (≈ 36 µg/mL)
O=C(NC1=NCCS1)c1sc2cc(F)ccc2c1Cl	8.61 (≈ 2.71 µg/mL)	5.16	5.49	1 (≈ 0.315 µg/mL)
CCc1nnc(NC(=O)c2cccc(C(=O)Nc3nnc(CC)s3)n2)s1	8 (≈ 3.12 µg/mL)	–	–	26 (≈ 10.1 µg/mL)
COc1ccc(-c2cc(=O)c3cc(OCC(=O)OC(C)C)ccc3o2)cc1	2.95 (≈ 1.09 µg/mL)	5.91	6.29	–
O=C(Nc1nnc(-c2ccc(Cl)cc2)o1)c1cccc(C(F)(F)F)c1	5.62 (≈ 2.07 µg/mL)	4.51	6.29	1 (≈ 0.368 µg/mL)
O=C(Cc1ccc(F)cc1)Nc1nc(-c2ccccn2)cs1	9.3 (≈ 2.91 µg/mL)	4.32	4.33	14 (≈ 4.39 µg/mL)
COc1ccc(-c2cncc(-c3cc(N4CCN(CCO)CC4)nc(-c4ccccc4)n3)c2)cc1	1.45 (≈ 0.676 µg/mL)	5.91	6.34	1 (≈ 0.468 µg/mL)
O=C(O)C(F)(F)F.c1ccc(C[C@H]2CN(c3nccc(Oc4ccc(-n5ccnc5)cc4)n3)CCN2)cc1	1.8	3.58	4.33	260
Br.Cc1cc(C)cc(OCCCON2C(=N)N=C(N)NC2(C)C)c1	5.31	3.2	4.72	358
Cc1ccc(C2CC(C(F)(F)F)n3ncc(C(=O)NCc4ccc5c(c4)OCO5)c3N2)cc1 (centres undefined)	5.4 (≈ 2.48 µg/mL)	–	–	–
c1ccc(CCNc2cc(-c3ccccc3)nc3nncn23)cc1	5.5 (≈ 1.73 µg/mL)	4.97	5.13	6 (≈ 1.89 µg/mL)

Structure (SMILES)	MIC90 [1] [µM]	logD (physchem [2])	logP (physchem [3])	solubility kinetic (physchem [4]) [µM]
O=C(O)C(F)(F)F.c1ccc2c(-c3ccc(CNCC4CCNC4)cc3)cncc2c1 (centres undefined)	5.56	1.52	3.02	61
Cc1cnc(N2CCN[C@@H](Cc3ccccc3)C2)nc1Oc1ccc(-n2ccnc2)cc1.O=C(O)C(F)(F)F	9.23	4.04	5.03	228
COc1ccc2cc(C(=O)Nc3ccc(C4CCN(C)CC4)cc3)sc2c1	9.55 (≈ 3.63 µg/mL)	3.11	5.93	62 (≈ 23.6 µg/mL)
Cc1ccc2nc(C)c(C(=O)NCc3cccs3)n2c1	0.2 (≈ 0.0571 µg/mL)	–	–	–
Nc1cccnc1Nc1ccc(Cl)cc1	0.232 (≈ 0.0509 µg/mL)	–	–	94 (≈ 20.6 µg/mL)
COc1ccc2nc(C)cc(OCC(=O)Nc3cc(C)cc(C)c3)c2c1	0.3 (≈ 0.105 µg/mL)	–	–	–
Cc1cccc(-c2nc(Nc3ccncn3)c3c(C)csc3n2)n1	0.3 (≈ 0.1 µg/mL)	–	–	–
Nc1nc2cc(-c3cncc(Oc4ccc(F)cc4)c3)ccc2[nH]1.O=C(O)C(F)(F)F.O=C(O)C(F)(F)F	0.347	3.11	3.12	100
COc1ccc2nc(C)cc(OCC(=O)Nc3ccccc3OC)c2c1	0.4 (≈ 0.141 µg/mL)	–	–	–
Cc1cc(/C=C/c2cccc(C(=O)O)c2)cc(Cl)c1OC[C@@H]1CCCN1C	0.457 (≈ 0.176 µg/mL)	–	–	486 (≈ 188 µg/mL)
Cc1ccccc1CN1CCC(O)(c2ccc(Cl)c(C(F)(F)F)c2)CC1	4.2 (≈ 1.61 µg/mL)	–	–	77 (≈ 29.6 µg/mL)
N=C(N)c1ccc(CCN2CCC(c3nc(COCC(F)(F)F)c(-c4ccc(F)cc4)o3)CC2)cc1.O=C(O)C(F)(F)F.O=C(O)C(F)(F)F	6.17	3.76	6.14	255
Nc1ccccc1Nc1ccc2c(c1)OCO2	1.82 (≈ 0.415 µg/mL)	–	–	139 (≈ 31.7 µg/mL)
Nc1cccnc1Nc1ccc(C(F)(F)F)cc1	2.24 (≈ 0.567 µg/mL)	4.97	5.03	328 (≈ 83.1 µg/mL)
COc1cccc(-c2nc3c(N4CCCC4)cccc3n2CC2CCCN2)n1.O=C(O)C(F)(F)F (centres undefined)	9.77	–	–	78
Cn1c(=O)c2c([S+](C)[O-])snc2n(C)c1=O (centres undefined)	9.77 (≈ 2.53 µg/mL)	1.24	1.24	420 (≈ 109 µg/mL)
Cc1cc(OCC(=O)NCc2ccccc2)c2cc(Br)ccc2n1	2.3 (≈ 0.886 µg/mL)	4.97	5.13	15 (≈ 5.78 µg/mL)
c1ccc(SCc2nn3c(-c4ccccc4)nnc3s2)cc1	2.69 (≈ 0.873 µg/mL)	5.44	5.78	1 (≈ 0.324 µg/mL)
